Patent publication US20260035364A1, “BICYCLIC TETRAHYDROTHIAZEPINE DERIVATIVES” (Hoffmann-La Roche Inc., priority 2022, published 2026)

Key:
primary human T-cells = assay: T-cell proliferation assay (CellTiter-Glo); assay type: cell-based; conditions: Homo sapiens, T-cell, 120 h, CD3 condition; for Emax: 5 days, 20 μM reference compound A1 = 100%, read-out: Emax proliferation (% activation); for EC50: proliferation after 5 days, CellTiter-Glo, read-out: Tcell Proliferation CD3 EC50
Protocol: Expanded primary human T-cells are thawed and cultured in RPMI 1640 (Gibco, #61870-010)+5% human serum (HS, Sigma, #H3667)+1 mM Sodium Pyruvate (Gibco, #11360-039)+50 μM 2-mercaptoethanol (Gibco, #31350-010) and 1× Pen-Strep (Life Technologies, #15140122) medium at density of 2 Mio/ml for 3 hours in 5% CO2, 37° C. and 95% humidity. For coating of plates, PBS++ only or PBS++ with CD3 antibody (concentration depending on donor and determined by CD3 titrations) is added 100 μl/well to Poly-D Lysine coated 96-well plates. Plates are sealed and incubated at room temperature for 3 hours on a table-top rocking platform. After incubation, plates are washed once with PBS−− and filled with 40 μl/well culture medium only. Compounds are then added (see next section) to medium only plates. After 3 hours of culturing the T-cells, cells are filtered through a cell strainer (Miltenyi Biotech, #130-041-407), counted again and concentration is adjusted to 1.25 Mio/ml.
Cells are then seeded 80 μl/well to the 40 µl/well including dispensed compounds according to plate layout. By adding cells, compounds are further diluted 1:3, and resulting in 100k cells/120 µl/well. After 48 hours 40 μl of supernatant is collected carefully from the top while not disturbing the cells. Cells are assessed for proliferation 5 days later by measuring […] using CellTiterGlo (Promega).
Compounds were added in a 5 or 6 pt dose response with the Tecan D300e Digital Dispenser, all conditions 3 times more concentrated than the end-concentration, since cells are added afterwards (80p1 cells to 40p1 prepared medium with treatment). The DR was starting at 20 μM or 10 μM final top concentration and a dilution factor of 3.333. The positive control was the reference compound A1 that was added in a dose response as well, additionally to 3 wells of only 20 μM representing the positive stimulator control. All wells were normalized with DMSO to a final concentration of 0.6% (0.2% end-concentration).
After 5 days, for detection of ATP which is directly proportional to the number of cells present per well, the CellTiter-Glo® 2.0 Reagent is used. After visual control for toxicity or precipitations of the tested compounds, the plates are equilibrated to room temperature for 45 minutes. CellTiter-Glo® 2.0 Reagent is equilibrated to room temperature as well. After equilibration, an equal amount of CellTiter-Glo reagent is added to the cells (80 µl/well) with an electronic multichannel pipette. Plates are placed on a rocking platform for 15 minutes at room temperature. After incubation, the bottom of the plates is sealed with backing tape. Luminescence is measured with PHERAstar FSX (interval time 0.5 sec, gain 3000, focal height 15 mm) and exported as CSV file for analysis in Genedata screener.
Calculations and Data Reporting CD3 and PBS plates were analysed separately in Genedata Screener using Roche Normalization PCT_POS_CTRL with DMSO set as Neutral Control and 20 μM of the reference compound A1 set as Stimulator Control/100%.
For CD3 conditions EC50 and Emax of the fitted sigmoidal curve were reported. If no curve could be fitted, the EC50 was reported as blank field and the Emax was based on individual data points. […] Compounds which activate unstimulated cells (see IL2 measurements) or compounds which negatively affected viability were flagged.

DGKzeta = DGKzeta (Homo sapiens, UniProt Q13574); assay: In vitro DGK inhibition assay (ADP-Glo, liposomes), DGKzeta; assay type: biochemical; parameters: hDGKzeta(1-928)-N-His; His (N); made in house; host or cells: Sf21 insect cells (baculovirus); conditions: 2 nM DGK ζ, 50 μM ATP, 125 uM DLG in liposomes, 1 hour reaction
Chain of DGKzeta (Q13574 whole entry): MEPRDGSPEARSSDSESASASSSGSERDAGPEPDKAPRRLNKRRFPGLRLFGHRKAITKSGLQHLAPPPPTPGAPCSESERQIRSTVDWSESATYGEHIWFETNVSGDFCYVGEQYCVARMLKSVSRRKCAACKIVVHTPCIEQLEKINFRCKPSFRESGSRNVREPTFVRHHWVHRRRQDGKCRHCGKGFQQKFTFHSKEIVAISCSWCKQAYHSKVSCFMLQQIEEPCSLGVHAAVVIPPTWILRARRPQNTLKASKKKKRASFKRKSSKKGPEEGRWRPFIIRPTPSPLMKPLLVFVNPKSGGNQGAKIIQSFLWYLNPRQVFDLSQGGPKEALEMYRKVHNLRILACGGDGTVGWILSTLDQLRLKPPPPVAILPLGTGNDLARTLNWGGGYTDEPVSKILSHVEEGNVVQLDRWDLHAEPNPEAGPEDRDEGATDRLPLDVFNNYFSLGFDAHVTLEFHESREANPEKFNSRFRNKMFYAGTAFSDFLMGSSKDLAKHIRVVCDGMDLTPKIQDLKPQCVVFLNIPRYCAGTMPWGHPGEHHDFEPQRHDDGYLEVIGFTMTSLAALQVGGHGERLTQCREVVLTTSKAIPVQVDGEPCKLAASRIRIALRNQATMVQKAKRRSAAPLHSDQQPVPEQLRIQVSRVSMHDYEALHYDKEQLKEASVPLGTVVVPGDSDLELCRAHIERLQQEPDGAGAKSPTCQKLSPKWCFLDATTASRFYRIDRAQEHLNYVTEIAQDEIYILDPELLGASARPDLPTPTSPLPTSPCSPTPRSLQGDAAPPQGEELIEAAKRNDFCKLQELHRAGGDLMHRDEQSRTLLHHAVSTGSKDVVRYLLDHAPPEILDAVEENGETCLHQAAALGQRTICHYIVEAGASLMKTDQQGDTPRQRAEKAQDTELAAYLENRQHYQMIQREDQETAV
Protocol: DGK α and ζ kinases use ATP to phosphorylate the substrate 1,2-dilauroyl-sn-glycerol (DLG, incorporated in the liposomes). ATP is converted to ADP as a result of this enzymatic reaction. After the kinase reaction, an ATP-depletion reagent is added to terminate the kinase reaction and deplete any remaining ATP, leaving only ADP. Second, a detection reagent is added to simultaneously convert ADP to ATP and allow the newly synthesized ATP to be converted to light using a coupled luciferase/luciferin reaction.
Purification of both enzymes was performed as previously described by Takahashi et al., PeerJ, 2018 (Takahashi, D.; Sakane, F. Expression and purification of human diacylglycerol kinase alpha from baculovirus-infected insect cells for structural studies. PeerJ 2018, 6, No. e5449).
A concentrated liposome solution was prepared in assay buffer without DTT and BSA: 2 mM of DLG in 21 mM of total liposome (2 mM DLG/8 mM PS/11 mM PC). The reaction mixtures contain the assay buffer with a final DLG concentration of 125 uM ATP concentrations of 25 μM (for DGKA assay) or 50 μM (for DGKZ assay). The reactions were started by addition of DGK a and (kinases at 4 nM and 2 nM final concentrations, respectively. After 1 hour reaction, the amount of ADP formed was detected with the ADP-Glo kinase assay (Promega) according to the manufacturer instructions. Compounds were added in 11-points dose response, starting at […], 1:3 dilutions, with a final DMSO concentration of 2%. The multidrop combi was used as a liquid handler and luminescence was read with 0.5 s by the envision reader (PE).

SMILES	IC50 (DGKzeta) [nM]	Emax (primary human T-cells) [%]	EC50 (primary human T-cells) [nM]
CC(C)(c1nnc(-c2ccc3c(c2)N(Cc2ccc(OCc4ccccc4)cc2)C(=O)[C@@H](N)CS3(=O)=O)o1)S(C)(=O)=O [Example 11, (3R)-3-amino-5-[(4-benzyloxyphenyl)methyl]-7-[5-(1-methyl-1-methylsulfonyl-ethyl)-1,3,4-oxadiazol-2-yl]-1,1-dioxo-2,3-dihydro-1λ6,5-benzothiazepin-4-one]	1060	145	495
CC(C)(c1nnc(-c2ccc3c(c2)N(Cc2ccc(Oc4cc(F)cc(C(F)(F)F)c4)cc2)C(=O)[C@@H](N)CS3(=O)=O)o1)S(C)(=O)=O [Example 39]	2630	108	1330
CC(C)(c1nc(-c2cc3c(cc2F)S(=O)(=O)C[C@H](N)C(=O)N3Cc2ccc(OCc3nc(C(F)(F)F)no3)cc2)no1)S(C)(=O)=O [Example 59, (3R)-3-amino-8-fluoro-7-[5-(1-methyl-1-methylsulfonyl-ethyl)-1,2,4-oxadiazol-3-yl]-1,1-dioxo-5-[[4-[[3-(trifluoromethyl)-1,2,4-oxadiazol-5-yl]methoxy]phenyl]methyl]-2,3-dihydro-1λ6,5-benzothiazepin-4-one]	310	185	1120

Further compounds by falling IC50 (DGKzeta), results first:

IC50 (DGKzeta) [nM]	SMILES	Emax (primary human T-cells) [%]	EC50 (primary human T-cells) [nM]
8880	CC(C)(c1nnc(-c2ccc3c(c2)N(Cc2ccc(-c4ccc(C(F)(F)F)cc4)cc2)C(=O)[C@@H](N)CS3(=O)=O)o1)S(C)(=O)=O [Example 56, (3R)-3-amino-7-[5-(1-methyl-1-methylsulfonyl-ethyl)-1,3,4-oxadiazol-2-yl]-1,1-dioxo-5-[[4-[4-(trifluoromethyl)phenyl]phenyl]methyl]-2,3-dihydro-1λ6,5-benzothiazepin-4-one]	137	636
3110	CC(C)(c1nnc(-c2ccc3c(c2)N(Cc2ccc(-c4noc(C(F)(F)F)n4)cc2)C(=O)[C@@H](N)CS3(=O)=O)o1)S(C)(=O)=O [Example 17, (3R)-3-amino-7-[5-(1-methyl-1-methylsulfonyl-ethyl)-1,3,4-oxadiazol-2-yl]-1,1-dioxo-5-[[4-[5-(trifluoromethyl)-1,2,4-oxadiazol-3-yl]phenyl]methyl]-2,3-dihydro-1λ6,5-benzothiazepin-4-one]	112	1460
1920	CC(C)(c1nnc(-c2ccc3c(c2)N(Cc2ccc(OC(F)(F)F)cc2)C(=O)[C@@H](N)CS3(=O)=O)o1)S(C)(=O)=O [Example 64, (3R)-3-amino-7-[5-(1-methyl-1-methylsulfonyl-ethyl)-1,3,4-oxadiazol-2-yl]-1,1-dioxo-5-[[4-(trifluoromethoxy)phenyl]methyl]-2,3-dihydro-126,5-benzothiazepin-4-one]	98	6170
630	CC(C)(c1nc(-c2cc3c(cc2F)S(=O)(=O)C[C@H](N)C(=O)N3Cc2ccc(Oc3ccccc3)nc2)no1)S(C)(=O)=O [Example 48, (3R)-3-amino-8-fluoro-7-[5-(1-methyl-1l-methylsulfonyl-ethyl)-1,2,4-oxadiazol-3-yl]-1,1-dioxo-5-[(6-phenoxy-3-pyridyl)methyl]-2,3-dihydro-1 λ6,5-benzothiazepin-4-one]	252	296
309	CC(C)(c1nc(-c2cc3c(cc2F)S(=O)(=O)C[C@H](N)C(=O)N3Cc2ccc(Oc3ccccc3)cc2)no1)S(C)(=O)=O [Example 30, (3R)-3-amino-8-fluoro-7-[5-(1-methyl-1-methylsulfonyl-ethyl)-1,2,4-oxadiazol-3-yl]-1,1-dioxo-5-[(4-phenoxyphenyl)methyl]-2,3-dihydro-1λ6,5-benzothiazepin-4-one]	225	127
